Series [1] relates to RSV (RSV A2 ECACC, 0709161v). The experiment in a line: RSV plaque reduction assay. Type of series: cell-based, respiratory syncytial virus. Particulars: human respiratory syncytial virus, HepG2, read-out: RSV A2 Plaque EC50, RSV A2 in Hep-G2 cells; mean of at least two experiments unless noted (n = 1). The gist of the method:
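Eight-point compound dilutions were premixed with RSV A2 (100 PFU/well) and applied to confluent Hep-G2 cells for 2 h, followed by a 2-day incubation at 37° C. under compound-containing 0.8% CMC overlay. EC50 comes from immunostained plaque counts relative to untreated virus wells, averaged over ≥2 runs.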

The nature of a further series: cell toxicity CC50. Format: cell-based. Conditions: human; Hep-G2 cells; mean of at least two experiments; read-out: Cell Cytotoxicity CC50.

The text below walks through data of patent publication US12678446B2 (PFIZER INC., priority 2020, dated 2026).

Broadly, the EC50 is the concentration that produces a half-maximal response. As usually defined, the CC50 is the concentration giving 50% cytotoxicity.

Where only a bound is given, the exact number is not on record here.

Take `C[C@H]1CCn2nc(-c3ccncc3F)c(C(=O)N[C@H]3N=C(c4ccccc4)c4cccc(F)c4NC3=O)c2O1` [Example 76, (5S)-N-[(3S)-9-fluoro-2-oxo-5-phenyl-1,3-dihydro-1,4-benzodiazepin-3-yl]-2-(3-fluoropyridin-4-yl)-5-methyl-6,7-dihydro-5H-pyrazolo[5,1-b][1,3]oxazine-3-carboxamide]: in series [1], the concentration for a half-maximal effect (EC50) amounted to 93 nM. For the same compound, in the series “cell toxicity CC50”, the CC50 was above 25000 nM.

Take `C[C@@H]1CCn2nc(-c3cnn(CCO)c3)c(C(=O)N[C@H]3N=C(c4ccccc4)c4cccc(F)c4NC3=O)c2O1` [Example 117, (5R)-N-[(3S)-9-fluoro-2-oxo-5-phenyl-1,3-dihydro-1,4-benzodiazepin-3-yl]-2-[1-(2-hydroxyethyl)pyrazol-4-yl]-5-methyl-6,7-dihydro-5H-pyrazolo[5,1-b][1,3]oxazine-3-carboxamide]: the EC50 in series [1] is 434 nM. In addition, the CC50 in the series “cell toxicity CC50” is above 25000 nM.

Turning to `C[C@@H]1CCn2nc(C3CCCCC3)c(C(=O)N[C@H]3N=C(c4ccccc4)c4cccc(F)c4NC3=O)c2O1` [Example 114, (5R)-2-Cyclohexyl-N-[(3S)-9-fluoro-2-oxo-5-phenyl-1,3-dihydro-1,4-benzodiazepin-3-yl]-5-methyl-6,7-dihydro-5H-pyrazolo[5,1-b][1,3]oxazine-3-carboxamide], in series [1], the EC50 is 117 nM. Besides, the CC50 in “cell toxicity CC50” was 17100 nM.

Turning to `CCNc1ccc(-c2nn3c(c2C(=O)N[C@H]2N=C(c4ccccc4)c4cccc(F)c4NC2=O)O[C@H](C)CC3)cn1` [Example 52, (5R)-2-[6-(Ethylamino)-3-pyridyl]-N-[(3S)-9-fluoro-2-oxo-5-phenyl-1,3-dihydro-1,4-benzodiazepin-3-yl]-5-methyl-6,7-dihydro-5H-pyrazolo[5,1-b][1,3]oxazine-3-carboxamide], the EC50 in series [1] amounted to 28 nM. In addition, in the series “cell toxicity CC50”, the CC50 is above 25000 nM.

For the compound `O=C(N[C@H]1N=C(c2ccccc2)c2cccc(F)c2NC1=O)c1c(-c2ccc(CN3CCOCC3)cc2F)nn2c1OCCC2` [Example 101, 2-[2-Fluoro-4-(morpholin-4-ylmethyl)phenyl]-N-[(3S)-9-fluoro-2-oxo-5-phenyl-1,3-dihydro-1,4-benzodiazepin-3-yl]-6,7-dihydro-5H-pyrazolo[5,1-b][1,3]oxazine-3-carboxamide], in series [1], the EC50 was 123 nM. For the same compound, the CC50 in “cell toxicity CC50” is above 25000 nM.

In the case of `COc1cccc(F)c1-c1nn2c(c1C(=O)N[C@H]1N=C(c3ccccc3)c3cccc(F)c3NC1=O)OCCC2` [Example 139, 2-(2-Fluoro-6-methoxyphenyl)-N-[(3S)-9-fluoro-2-oxo-5-phenyl-1,3-dihydro-1,4-benzodiazepin-3-yl]-6,7-dihydro-5H-pyrazolo[5,1-b][1,3]oxazine-3-carboxamide], the concentration giving a half-maximal response (EC50) in series [1] amounted to 66 nM. In addition, the half-maximal cytotoxic concentration (CC50) in “cell toxicity CC50” was above 25000 nM.

For the compound `O=C(N[C@H]1N=C(c2ccccc2)c2cccc(F)c2NC1=O)c1c(-c2c(F)cccc2F)nn2c1OCC(CO)C2` (mixture of isomers) [Example 129, 2-(2,6-Difluorophenyl)-N-[(3S)-9-fluoro-2-oxo-5-phenyl-1,3-dihydro-1,4-benzodiazepin-3-yl]-6-(hydroxymethyl)-6,7-dihydro-5H-pyrazolo[5,1-b][1,3]oxazine-3-carboxamide], the EC50 in series [1] was 37 nM. In “cell toxicity CC50”, the CC50 was above 25000 nM.

Take `C[C@@H]1CCn2nc(-c3ccc(N4C[C@H]5C[C@@H]4CO5)nc3)c(C(=O)N[C@H]3N=C(c4ccccc4)c4cccc(F)c4NC3=O)c2O1` [Example 86, (5R)-5-Methyl-N-[(3S)-9-fluoro-2-oxo-5-phenyl-1,3-dihydro-1,4-benzodiazepin-3-yl]-2-[6-[(1R,4R)-2-oxa-5-azabicyclo[2.2.1]heptan-5-yl]pyridin-3-yl]-6,7-dihydro-5H-pyrazolo[5,1-b][1,3]oxazine-3-carboxamide]: in series [1], the concentration for a half-maximal effect (EC50) stood at 44 nM. In the series “cell toxicity CC50”, the CC50 was above 25000 nM.

For `CC1(C)COc2c(C(=O)N[C@H]3N=C(c4ccccc4)c4cccc(F)c4NC3=O)c(-c3ccccc3F)nn2C1` [Example 41, N-[(3S)-9-fluoro-2-oxo-5-phenyl-1,3-dihydro-1,4-benzodiazepin-3-yl]-2-(2-fluorophenyl)-6,6-dimethyl-5,7-dihydropyrazolo[5,1-b][1,3]oxazine-3-carboxamide], in series [1], the EC50 was determined as 29 nM. Further, the CC50 in “cell toxicity CC50” was above 25000 nM.

Regarding `CC(C)Nc1ccc(-c2nn3c(c2C(=O)N[C@H]2N=C(c4ccccc4)c4cccc(F)c4NC2=O)OCC2(CC2)C3)cn1` [Example 179, 2-[6-(Propan-2-ylamino)pyridin-3-yl]-N-[(3S)-9-fluoro-2-oxo-5-phenyl-1,3-dihydro-1,4-benzodiazepin-3-yl]spiro[5,7-dihydropyrazolo[5,1-b][1,3]oxazine-6,1′-cyclopropane]-3-carboxamide], the half-maximal effective concentration (EC50) in series [1] was 34 nM. Further, in the series “cell toxicity CC50”, the CC50 was above 25000 nM.

For the compound `CCN(CC)Cc1ccc(-c2nn3c(c2C(=O)N[C@H]2N=C(c4ccccc4)c4cccc(F)c4NC2=O)OCCC3)c(F)c1` [Example 102, 2-[4-(Diethylaminomethyl)-2-fluorophenyl]-N-[(3S)-9-fluoro-2-oxo-5-phenyl-1,3-dihydro-1,4-benzodiazepin-3-yl]-6,7-dihydro-5H-pyrazolo[5,1-b][1,3]oxazine-3-carboxamide], the concentration giving a half-maximal response (EC50) in series [1] was found to be 135 nM. The CC50 in “cell toxicity CC50” is above 25000 nM.

As to `O=C(N[C@H]1N=C(c2ccccc2)c2cccc(F)c2NC1=O)c1c(-c2ccc(NC3CC3)nc2F)nn2c1OCCC2` [Example 39, 2-[6-(Cyclopropylamino)-2-fluoropyridin-3-yl]-N-[(3S)-9-fluoro-2-oxo-5-phenyl-1,3-dihydro-1,4-benzodiazepin-3-yl]-6,7-dihydro-5H-pyrazolo[5,1-b][1,3]oxazine-3-carboxamide], in series [1], the EC50 is 40 nM. Further, the CC50 in the series “cell toxicity CC50” is above 25000 nM.

Regarding `C[C@@H]1CCn2nc(-c3ccoc3)c(C(=O)N[C@H]3N=C(c4ccccc4)c4ccccc4NC3=O)c2O1` [Example 62, (5R)-2-(3-Furyl)-5-methyl-N-[(3S)-2-oxo-5-phenyl-1,3-dihydro-1,4-benzodiazepin-3-yl]-6,7-dihydro-5H-pyrazolo[5,1-b][1,3]oxazine-3-carboxamide], in series [1], the EC50 is 192 nM. For the same compound, the CC50 in “cell toxicity CC50” was above 25000 nM.

On to `C[C@@H]1CCn2nc(-c3cn[nH]c3)c(C(=O)N[C@H]3N=C(c4ccccc4)c4cccc(F)c4NC3=O)c2O1` [Example 159, (5R)-N-[(3S)-9-fluoro-2-oxo-5-phenyl-1,3-dihydro-1,4-benzodiazepin-3-yl]-5-methyl-2-(1H-pyrazol-4-yl)-6,7-dihydro-5H-pyrazolo[5,1-b][1,3]oxazine-3-carboxamide], for which the EC50 in series [1] worked out at 395 nM. In “cell toxicity CC50”, the CC50 was above 25000 nM.

Consider `O=C(N[C@H]1N=C(c2ccccc2)c2cccc(F)c2NC1=O)c1c(-c2cnn(C3CCOCC3)c2)nn2c1OCCC2` [Example 152, N-[(3S)-9-Fluoro-2-oxo-5-phenyl-1,3-dihydro-1,4-benzodiazepin-3-yl]-2-[1-(oxan-4-yl)pyrazol-4-yl]-6,7-dihydro-5H-pyrazolo[5,1-b][1,3]oxazine-3-carboxamide], for which the EC50 in series [1] was 84 nM. For the same compound, in the series “cell toxicity CC50”, the 50% cytotoxic concentration (CC50) was above 25000 nM.

As to `CCc1ccc(-c2nn3c(c2C(=O)N[C@H]2N=C(c4ccccc4)c4ccccc4NC2=O)OCC2(CCC2)C3)cn1` [Example 176, 2-(6-Ethylpyridin-3-yl)-N-[(3S)-2-oxo-5-phenyl-1,3-dihydro-1,4-benzodiazepin-3-yl]spiro[5,7-dihydropyrazolo[5,1-b][1,3]oxazine-6,1′-cyclobutane]-3-carboxamide], the EC50 in series [1] came to 63 nM. For the same compound, the CC50 in “cell toxicity CC50” was above 25000 nM.
